The target of the test is T1, Acetylcholinesterase (AChE) (Electrophorus electricus, UniProt O42275).
T1 construct: purchased Sigma Aldrich type VI-S
As to the kind of experiment: In vitro anti-acetylcholinesterase assay (Ellman's method). As to conditions: read-out: AChE Inhibition (IC50). It is filed as biochemical. The text has this:
In vitro enzyme assay reagents were purchased as previously described. Acetylcholinesterase (AChE) from Electrophorus electricus type VI-S lyophilized powder (137 units/mg) was acquired from Sigma Aldrich (St. Louis, MO, USA). Substrate acetylthiocholine iodide (ATCl) and sodium phosphate monobasic and dibasic anhydrous used for buffer preparation were obtained from Wako Pure Chemical (Osaka, Japan). Coloring reagent 5,5′-dithio-bis-(2-nitrobenzoic acid) (DTNB) was acquired from Nacalai Tesque (Kyoto, Japan). […] All other reagents acquired from commercial sources were of analytical grade.
The plant fractions and isolated compounds were evaluated for their anti-AChE potential in triplicate based on the Ellman’s method described previously.
In general terms: In Ellman's method for cholinesterases, released thiocholine reacts with DTNB.

Molecules are shown by their SMILES.

T1 sequence (O42275 24-633): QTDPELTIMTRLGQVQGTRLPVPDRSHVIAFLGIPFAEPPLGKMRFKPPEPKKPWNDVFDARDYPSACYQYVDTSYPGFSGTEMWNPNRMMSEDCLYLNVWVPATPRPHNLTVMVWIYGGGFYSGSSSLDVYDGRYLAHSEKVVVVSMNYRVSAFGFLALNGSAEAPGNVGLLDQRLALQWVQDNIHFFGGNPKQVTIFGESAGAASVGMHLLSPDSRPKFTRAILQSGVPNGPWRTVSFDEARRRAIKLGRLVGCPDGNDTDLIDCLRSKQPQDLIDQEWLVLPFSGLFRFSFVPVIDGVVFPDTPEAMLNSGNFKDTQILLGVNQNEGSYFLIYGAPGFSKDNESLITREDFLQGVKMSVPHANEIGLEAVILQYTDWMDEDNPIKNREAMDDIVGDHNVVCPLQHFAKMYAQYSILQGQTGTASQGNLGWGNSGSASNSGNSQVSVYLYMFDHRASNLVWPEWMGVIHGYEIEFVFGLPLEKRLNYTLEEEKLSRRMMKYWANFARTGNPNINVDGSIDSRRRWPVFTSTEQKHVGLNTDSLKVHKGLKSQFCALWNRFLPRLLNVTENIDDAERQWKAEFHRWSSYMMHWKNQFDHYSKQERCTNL

Consider `CCCC/C=C\C/C=C\CCCCCCCCc1cccc(O)c1C(=O)O` [Compound 5, 6-heptadeca-9Z,12Z-dienyl salicylic acid], for which the concentration for half-maximal inhibition (IC50) was 0.54 µM.

For `CC/C=C\C/C=C\C/C=C\CCCCCCCc1cccc(O)c1C(=O)O` [Compound 4, 6-heptadeca-8Z,11Z,14Z-trienyl salicylic acid], the half-maximal inhibitory concentration (IC50) worked out at 2.4 µM.

On to `CC(C)=CCCC(C)=CCc1c(O)cc2c(c1O)C(=O)CC(c1cc(O)cc(O)c1)O2` (centres unmarked) [Compound 3, schizolaenone C], for which the IC50 stood at 6.8 µM.

Take `CC(C)=CCC/C(C)=C/Cc1c(C2CC(=O)c3c(O)cc(O)c(CC=C(C)C)c3O2)ccc(O)c1O` (centres unmarked) [Compound 1, solophenol A]: the IC50 is 1 µM.

On to `CC(C)=CCC/C(C)=C/Cc1c([C@@H]2CC(=O)c3c(O)cc(O)cc3O2)ccc(O)c1O` [Compound 2, nymphaeol B], for which the half-maximal inhibitory concentration (IC50) came to 33 µM.

Usually IC50 stands for the concentration needed to halve the response being measured.

The values above are taken from article PMC9102781 (Molecules, 2022).
